# Entries after “also recorded” stand apart in the source; their conditions may differ.
# Test system: panel of up to 42 human chemokines
# Assay: Phage-display next generation sequencing screen of overlapping hexadecapeptide libraries, chemokines displayed on streptavidin beads;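 also: chemokine listed when log2 fold enrichment exceeds 5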
# Format: binding
# Details: log2E greater than 5, chemokines named by first part of UniProt Entry Name
# Procedure, shortened: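 Phage-display libraries of 55662 overlapping hexadecapeptides from tick and viral chemokine-binding proteins, human chemokines and chemokine receptors screened against up to 42 human chemokines, with hits found by next-generation sequencing. Peptides mapped to parent-protein position with log2 fold enrichment; regions of interest where cumulative residue log2 E exceeds the 95% upper CI of the protein median.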
row,Substance,Chemokines Bound
1,CR24367 (VCILVWLLAFCVSLPD),"CCL11, CCL17,; also recorded: CCL18, CCL19,; also recorded: CCL20, CCL22,; also recorded: CCL25, CCL28,; also recorded: CXL10, CXL11,; also recorded: SDF1, CXL13,; also recorded: CXL14, IL8"
2,CR24556 (VFGTVFLSIFYSVIFA),"CCL1, CCL17,; also recorded: CCL18, CCL19,; also recorded: CCL2, CCL20,; also recorded: CCL22, CCL25,; also recorded: CCL28, X3CL1,; also recorded: CXL10, CXL11,; also recorded: SDF1, CXL13,; also recorded: CXL14, IL8"
3,CR24593 (VFLLSLLGNSLVMLVI),"CCL22, CCL25, and CXL10, CXL11, and SDF1, CXL13, and IL8"
4,CR24594 (VFLLSLVGNSLVLWVL),"CCL22, X3CL1, and CXL11, CXL13, and IL8"
5,CR24612 (VFLSIFYSVIFAIGLV),"CCL17, CCL18,; also recorded: CCL22, CCL25,; also recorded: CCL28, X3CL1,; also recorded: CXL10, CXL11,; also recorded: SDF1, CXL13,; also recorded: CXL14"
6,CR24702 (VFYSLLFVFSLLGNSL),"CCL17, CCL18, and CCL19, CCL20, and CCL22, CCL25, and CCL5, X3CL1, and CXL11, CXL14, and IL8"
7,CR24707 (VGALGNSLVILVYWYC),"CCL17, CCL18,; also recorded: CCL19, CCL20"
8,CR24900 (VIGFLVPLLAMSFCYL),"CCL15, CCL17,; also recorded: CCL18"
9,CR24960 (VIMMTWFYAFFYSTVQ),"CCL1, CCL17,; also recorded: CCL18, CCL2,; also recorded: CCL22, CCL25,; also recorded: CCL28, CCL5,; also recorded: X3CL1, CXL11,; also recorded: CXL13, IL8"
10,CR24989 (VITFCLYVGQFLAYVR),"CCL17, CCL18,; also recorded: CCL19, CCL20,; also recorded: CCL25, X3CL1,; also recorded: CXL10, SDF1,; also recorded: CXL14"
11,CR25001 (VITWLVAVFASVPGII),"CCL1, CCL19,; also recorded: CCL2, CXL11,; also recorded: CXL14"
12,CR25151 (VLGDFLCKLLNMIFSI),"CCL18, CCL2, and CCL28, X3CL1, and CXL10, CXL14, and IL8"
13,CR25165 (VLGLLLNSLALWVFAA),"CCL19, CCL2,; also recorded: CCL20, CCL28"
14,CR25167 (VLGLLLNSLALWVFSS),"CCL11, CCL17,; also recorded: CCL18, CXL11,; also recorded: CXL14"
15,CR25244 (VLLSWKVLLTMVWGAA),"CCL11, CCL17,; also recorded: CCL18, CCL19,; also recorded: CCL2, CCL20,; also recorded: CCL22, CCL25,; also recorded: CCL28, X3CL1,; also recorded: CXL10, CXL11,; also recorded: SDF1, CXL13,; also recorded: CXL14, IL8"
16,CR25357 (VLTLKVILGFFLPFVV),"CCL1, CCL17,; also recorded: CCL18, CCL19,; also recorded: CCL28, CXL10,; also recorded: CXL11, SDF1,; also recorded: CXL13, CXL14"
17,CR25375 (VLVIGSLVARWLLGIQ),"CCL18, CCL19,; also recorded: CCL20"
18,CR25407 (VLYFIADEVYTVLLSW),"CCL15, CCL17, and CCL18, CCL19, and CCL20, CCL25, and X3CL1, CXL10, and CXL11, CXL13, and IL8"
19,CR25802 (VSILVWLLAFSVSLPD),"CCL15, CCL18, and CCL19, CCL20, and CCL28, CXL10, and IL8"
20,CR26001 (VTLTSLAVWGLSLLFA),"CCL11, CCL2,; also recorded: CCL28, SDF1"
21,CR26036 (VTSLLIWVISLLVSLP),"CCL28, X3CL1, and SDF1, CXL14, and IL8"
22,CR26041 (VTSVITWLVAVFASVP),"CCL2, X3CL1,; also recorded: CXL11, IL8"
23,CR26093 (VVCILVWLLAFCVSLP),"CCL20, X3CL1,; also recorded: CXL10, IL8"
24,CR26155 (VVLIFLLSWLPYNLVL),"CCL15, CCL28,; also recorded: CXL10, CXL13"
25,CR26231 (VVTSVITWLVAVFASV),"CCL11, CCL17, and CCL18, CCL2, and CCL20, CCL25, and CCL8, CXL10, and CXL11, CXL14, and IL8"
26,CR26232 (VVTSVITWVVAVFASL),"CCL17, CCL18,; also recorded: CCL28, CCL8,; also recorded: X3CL1, CXL10,; also recorded: SDF1, CXL14"
27,CR26306 (VWLMAIVGTFLNVLVI),"CCL22, CXL11,; also recorded: CXL13"

row,Substance,Chemokines Bound
1,CR26308 (VWLMCIVGTFLNVLVI),"CCL18, CCL20, and CCL22, CCL28, and CXL10, CXL11, and SDF1"
2,CR26309 (VWLMSIVGTFLNMLVI),"CCL18, CXL10,; also recorded: CXL11, CXL13,; also recorded: CXL14"
3,CR26310 (VWLMSIVGTFLNVLVI),"CCL17, CCL18,; also recorded: CCL2, CXL10,; also recorded: CXL11, SDF1,; also recorded: CXL14, IL8"
4,CR26327: chemokine binding peptide of Table 5A used in FIG. 5 combinations (VWVASILSSILDTIFH),"CCL2, CXL11, and IL8"
5,CR26399 (VYTVLLSWKVLLTLVW),"CCL1, CCL17, and CCL18, CCL19, and CCL20, CCL22, and CCL25, CCL28, and X3CL1, CXL10, and CXL11, SDF1, and CXL13, CXL14, and IL8"
6,CR26500 (WFLPIMYSIICFVGLL),"CCL28, SDF1,; also recorded: CXL14"
7,CR26513 (WGAAPVIMMTWFYAFF),"CCL11, CCL17, and CCL18, CCL19, and CCL20, CCL22, and CCL25, CCL28, and X3CL1, CXL10, and CXL11, CXL13, and IL8"
8,CR26521 (WGLALLFALPDFIFLS),"CCL15, CXL13, and IL8"
9,CR26536 (WGWVLGDFLCKLLNMI),"CCL1, CCL11,; also recorded: CCL17, CCL18,; also recorded: CCL20, CCL22,; also recorded: CCL28, CCL5,; also recorded: X3CL1, CXL10,; also recorded: SDF1, IL8"
10,CR26547 (WHWVFGSFLAKMVSTL),"CCL1, X3CL1,; also recorded: CXL14"
11,CR26592 (WKLLAEIYEYLFFFSF),"CCL19, CCL20,; also recorded: CCL22, CXL14"
12,CR26630 (WLMCIVGTFLNVLVIT),"CCL1, CCL17,; also recorded: CCL18, CCL19,; also recorded: CCL20, CCL22,; also recorded: CCL28, CCL8,; also recorded: X3CL1, CXL10,; also recorded: CXL11, SDF1,; also recorded: CXL14, IL8"
13,CR26633 (WLMSIVGTFLNMLVIT),"CCL11, CCL17,; also recorded: CCL18, CCL19,; also recorded: CCL20, CCL22,; also recorded: CCL25, CCL28,; also recorded: X3CL1, CXL10"
14,CR26655 (WMNILWAWFIFWWPHG),"CCL17, CCL18,; also recorded: CCL19, CCL20,; also recorded: CCL28, CXL10,; also recorded: SDF1, IL8"
15,CR26667 (WNNFHTIMRNILGLVL),"CCL17, CCL18,; also recorded: CXL14"
16,CR26721 (WSLVFMAIERINYFAY),"CCL17, CCL18,; also recorded: CXL10"
17,CR26762 (WVASILSSILDTIFHK),"CCL17, CCL18,; also recorded: X3CL1, CXL10,; also recorded: CXL11, IL8"
18,CR26799 (WVFIFSSIQLATVVFL),"CCL18, CCL19, and CCL20, CCL22, and CCL28, X3CL1, and CXL10, CXL11, and IL8"
19,CR26801 (WVFIFSSIQLCTVVFL),"CCL1, CCL17,; also recorded: CCL18, CCL19,; also recorded: CCL20, CCL28,; also recorded: X3CL1, SDF1"
20,CR26817 (WVLGDFLCKLLNMIFS),"CCL1, CCL17, and CCL18, CCL20, and CCL28, X3CL1, and CXL10, CXL11, and CXL13, CXL14, and IL8"
21,CR26831 (WVLVIGSLVARWLLGI),"CCL17, CCL2,; also recorded: X3CL1, CXL10"
22,CR26850 (WVVVFQFQHIMVGLIL),"CCL1, CCL19, and CCL20, CCL28, and SDF1"
23,CR27049 (YDLFIGIKIVYAFLWG),"CCL1, CCL18, and CCL22, CCL25, and IL8"
24,CR27050 (YDLFIGIKIVYCFLWG),"CCL1, CCL17,; also recorded: CCL19, CCL20,; also recorded: CCL22, X3CL1,; also recorded: CXL10, CXL11,; also recorded: SDF1, CXL13,; also recorded: CXL14, IL8"
25,CR27051 (YDLFIGIKIVYSFLWG),"CCL18, CCL2,; also recorded: CCL20, CCL25,; also recorded: CCL28, CXL10,; also recorded: CXL11, CXL14"
26,CR27428 (YLKAFLAAVLGWHLAP),"CCL17, CCL18,; also recorded: CCL2, CCL20,; also recorded: X3CL1, CXL10,; also recorded: CXL11, SDF1,; also recorded: CXL14"
